# In patent US11576416B2, “Method of producing microparticles of the type having a crosslinked, aggregated protein matrix by spray drying” (Anabio Technologies Limited, priority 2015, dated 2023):
# Columns and labels:
# Lb. acidophilus = test: Survival of probiotic bacteria during the drying process; type: cell-based; settings: acid used as the weak acid in the mix
# Excerpt: The pH of the final product will dictate the type of weak acid to be utilised.
# experimental animals = settings: cited from earlier work
Compound,Viability of probiotic bacteria during the drying process (Lb. acidophilus),Hazard to man or animals (experimental animals; at the level succinic acid occurs naturally in foods),Amount tolerated by experimental animals (experimental animals; experimental animals)
O=C1O[C@H]([C@@H](O)CO)C(O)=C1O [Ascorbic acid],has not effect,–,–
"O=C(O)CCC(=O)O [succinic acid, butanedioic acid]",has not effect,no evidence that it is hazardous,several
